According to patent publication US6022880A, “Substituted pyridylamino indoles” (Hoechst Marion Roussel, Inc., priority 1997, dated 2000):
Read-outs that look alike come from different tables or passages of the source.

How the values were obtained:
[1] = test system: rats (schedule-induced polydipsia); experiment: Schedule-Induced Polydipsia in Rats; type: in vivo, rat (male Wistar); conditions: i.p., daily; rats tested once a week
From the text: Schedule-Induced Polydipsia in Rats
Food deprived rates exposed to a fixed-interval feeding schedule and allowed free access to water develop an excessive drinking behavior known as polydipsia. This schedule-induced polydipsia (SIP) cannot be explained in terms of a physiological deficit due to water deprivation. Furthermore,it offers no benefit or reward to the rat (1). Just as SIP involves the exaggeration of the normal drinking behavior, the compulsive symptoms of obsessive-compulsive disorder (OCD) can be considered an exaggeration of normal human behaviors.
Male Wistar rats (Charles River) weighing 180-220 grams were individually housed and maintained in accordance with the "NIH Guide to Care and Use of Laboratory Animals" (National Institute of Health Care Publications, No. 85-23, revised 1985) with a 12 hour light; 12 hour dark cycle and allowed free access to water. The rats were placed on a restricted diet which maintained 80% of their free feeding body weight. To induce polydipsia, rats were placed in operant chambers housed in sound attenuated boxes where a pellet dispenser automatically dispensed two 45 mg (Noyes) pellets on a fixed-interval 60 second (FI-60 sec.) schedule over a 150 minute test session. Water was available at all times in the operant chambers. After four weeks (Monday through Friday) of exposure to the FI-60 sec. feeding schedule, approximately 80% of the rats met a pre-determined criterion for water consumption (greater than 60 mls of water per session) and were considered polydipsic. Rats (N=8) were administered, intraperitoneally (IP), vehicle or the appropriate compound daily. Once dosing commenced, the rats were tested in the operant chambers once a week to assess SIP.
Compounds were either dissolved or suspended in distilled water plus a drop of Tween 80 and injected IP in a dosage volume of 1 ml/kg. The final volume was prepared to account for salt content and the dosage was expressed as 100% base.

[2] = molecular target: T1, 5HT3 receptor (Rattus norvegicus, UniProt P35563); experiment: biochemical; type: binding, rat (male Wistar, entorhinal cortex)
T1 sequence (P35563 24-483): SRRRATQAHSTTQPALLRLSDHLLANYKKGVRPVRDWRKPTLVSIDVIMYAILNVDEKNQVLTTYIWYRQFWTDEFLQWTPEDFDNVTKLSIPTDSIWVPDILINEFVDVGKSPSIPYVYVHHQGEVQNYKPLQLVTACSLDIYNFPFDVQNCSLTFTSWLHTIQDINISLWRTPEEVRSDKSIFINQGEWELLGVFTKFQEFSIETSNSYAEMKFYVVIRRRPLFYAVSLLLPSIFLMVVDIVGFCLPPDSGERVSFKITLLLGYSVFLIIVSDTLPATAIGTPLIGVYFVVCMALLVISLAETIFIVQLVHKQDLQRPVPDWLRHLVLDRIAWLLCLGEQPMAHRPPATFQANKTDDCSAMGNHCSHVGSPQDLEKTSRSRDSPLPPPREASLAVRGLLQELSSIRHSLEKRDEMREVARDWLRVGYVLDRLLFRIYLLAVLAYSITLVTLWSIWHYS
Method: The homogenate is centrifuged at 48,000 g for 15 minutes at 4° C.
The filters are dried and counted in 10 ml of liquid scintillation cocktail.

[3] = test system: serotonin uptake, rat whole brain synaptosomes; experiment: Inhibition of [3H]-Serotonin Uptake in Rat Whole Brain Synaptosomes; type: biochemical, rat (male Wistar); conditions: [3H]-5HT 50 nM, read-out: C: Inhibition of serotonin uptake, IC50
Method: (C) Inhibition of [^3 H]-Serotonin Uptake in Rat Whole Brain Synaptosomes
(§1) A. Animals: Male CR Wistar Rats (100-125 g).
The final desired concentration of ^3 H-5HT in the assay is 50 nM. The dilution factor is 0.8.
5. For most assays, a 1 mM solution of the test compound is made up in suitable solvent and serially diluted such that the final concentration in the assay ranges from 2×10^-8 to 2×10^-5 M. Seven concentrations are used for each assay.
(§2) Male Wistar rats are decapitated and the brain rapidly removed. Whole brain minus cerebella is weighed and homogenized in 9 volumes of ice-cold 0.32 M sucrose using a Potter-Elvejhem homogenizer. Homogenization should be done with 4-5 up and down strokes at medium speeds to minimize synaptosome lysis. The homogenate is centrifuged at 1000 g for 10 min. at 0-4° C. The supernatant (S1) is decanted and is used for uptake experiments.
(§3) Tubes are incubated at 37° C. under a 95% O2 /5% CO2 atmosphere for 5 minutes. For each assay, 3 tubes are incubated with 20 μl of vehicle at 0° C. in an ice bath. After incubation all tubes are immediately centrifuged at 4000 g for 10 minutes. The supernatant fluid is aspirated and the pellets dissolved by adding 1 ml of solubilizer (Tritor. X-100+50% EtOH, 1:4 v/v). The tubes are vigorously vortexed, decanted into scintillation vials, and counted in 10 ml of Liquiscint scintillation counting cocktail. Active uptake is the difference between cpm at 37° C. and 0° C. The percent inhibition at each drug concentration is the mean of three determinations. IC50 values are derived from log-probit analysis.

[4] = test system: dopamine uptake, rat striatal synaptosomes; experiment: Inhibition of 3H-Dopamine Uptake in Rat Striatal Synaptosomes; type: biochemical, rat (male Wistar); conditions: 3H-DA 50 nM, read-out: D: Inhibition of dopamine uptake, IC50
Method: (D) Inhibition of ^3 H-Dopamine Uptake in Rat Striatal Synaptosomes
This assay is used to show differential drug effects on dopamine uptake versus norepinephrine uptake and to identify therapeutic agents for diseases where the potentiation of dopaminergic activity may be helpful (e.g. Parkinson's Disease).
as §1
The final desired concentration of ^3 H-DA in the assay is 50 nM. The dilution factor is 0.9. Therefore, the KHBB is made up to contain 55.5 nM [^3 H]-5DA.
5. For most assays, a 1 mM stock solution of the test compound is made up in a suitable solvent and serially diluted such that the final concentration in the assay ranges from 2×10^-8 to 2×10^-5 M. Seven concentrations are used for each assay. Higher or lower concentrations may be used depending on the potency of the compound.
as §2, with “Corpora striata are rapidly removed,” for “Whole brain minus cerebella is”
as §3, with “(Triton” for “(Tritor.”

[5] = test system: norepinephrine uptake, rat whole brain or hypothalamic synaptosomes; experiment: Inhibition of [3H]-Norepinephrine Uptake in Rat Whole Brain or Hypothalamic Synaptosomes; type: biochemical, rat (male Wistar); conditions: [3H]-NE 50 nM, read-out: E: Inhibition of norepinephrine uptake, IC50
Method: (E) Inhibition of [^3 H]-Norepinephrine Uptake in Rat Whole Brain or Hypothalamic Synaptosomes
This assay is used as a biochemical screen for potential antidepressants which block norepinephrine uptake.
A. Animals: Male CR Wistar rats (100-125 g).
The final desired concentration of [^3 H]-NE in the assay is 50 nM. The dilution factor is 0.8.
5. For most assays, a 1 mM stock solution of the test compound is made up in a suitable solvent and serially diluted such that the final concentration in the assay ranges from 2×10^-8 to 2×10^-5 M. Seven concentrations are used for each assay.
as §2, with “Either whole” for “Whole”, “cerebella or hypothalamus” for “cerebella”
as §3, with “(Triton” for “(Tritor.”

[6] = molecular target: T2, 5HT1A receptor (Rattus norvegicus, UniProt P19327); experiment: [3H]DPAT Binding to Serotonin Receptors of 5HT1A Type; set-up: species or system rat (male Wistar, hippocampus); conditions: [3H]DPAT 0.5 nM, rat hippocampal membranes
T2 construct: Hippocampi are removed, weighed and homogenized in 20 volumes of 0.05 M Tris buffer; from tissue; host or cells: rat hippocampus membranes (male Wistar)
T2 sequence (P19327 1-422): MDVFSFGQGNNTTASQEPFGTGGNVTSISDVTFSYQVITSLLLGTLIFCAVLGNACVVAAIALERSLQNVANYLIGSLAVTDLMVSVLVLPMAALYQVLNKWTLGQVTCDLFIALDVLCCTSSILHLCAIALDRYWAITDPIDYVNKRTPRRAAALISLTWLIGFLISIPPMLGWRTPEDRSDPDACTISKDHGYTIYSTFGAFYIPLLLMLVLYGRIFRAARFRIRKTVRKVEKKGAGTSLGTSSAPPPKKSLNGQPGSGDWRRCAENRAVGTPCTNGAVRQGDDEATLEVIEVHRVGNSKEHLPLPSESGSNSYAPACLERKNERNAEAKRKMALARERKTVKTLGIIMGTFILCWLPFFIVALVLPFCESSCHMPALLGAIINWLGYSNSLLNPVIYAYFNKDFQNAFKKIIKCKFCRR
Method: The purpose of this assay is to determine the affinity of test compounds for the 5HT1A receptor in the brain.
Serotonin creatinine sulfate. 0.5 mM stock solution is made up in 0.01 N HCl and 20 μl added to 3 tubes for determination of nonspecific binding (final concentration=10 μM).
Test Compounds. For most assays, a 1 mM stock solution is made up in a suitable solvent and serially diluted, such that the final concentration in the assay ranges from 2×10^-5 to 2×10^-8 M. Seven concentrations are used for each assay.
Male Wistar rats are sacrificed by decapitation. Hippocampi are removed, weighed and homogenized in 20 volumes of 0.05 M Tris buffer, pH 7.7. The homogenate is centrifuged at 48,000 g for 10 minutes and the supernatant is discarded. […]
Tubes are incubated for 15 minutes at 25° C. […] The filters are then placed into scintillation vials with 10 ml of Liquiscint scintillation cocktail and counted.
Specific binding is defined as the difference between total binding and binding in the presence of 10 μM 5HT. IC50 values are calculated from the percent specific binding at each drug concentration. […]
Tubes are incubated for 15 minutes at 25° C. […] The filters are then placed into scintilltion vials with 10 ml of Liquiscint scintillation cocktail and counted. […] IC50 values are calculated from the percent specific binding at each drug concentration.

[7] = test system: norepinephrine uptake (active transport system); conditions: high-affinity, sodium dependent active transport system; literature; read-out: Km (NE uptake); cited from earlier work
[8] = [3H]-GR65630 0.4 nM, rat entorhinal cortex, read-out: B: 5HT3 receptor binding, IC50

## CC(C)CN(c1ccncc1)c1csc2cc(C(F)(F)F)ccc12.Cl [3-[(2-Methylpropyl)(4-pyridinylamino)]-6-trifluoromethylbenzo[b]thiophene hydrochloride]
[1]
  inhibition of SIP (schedule-induced polydipsia), active dose: Active at 15

## CNCCC(Oc1ccc(C(F)(F)F)cc1)c1ccccc1 (stereo not drawn) [Fluoxetine, reference compound]
[1]
  inhibition of SIP (schedule-induced polydipsia), active dose: Active at 5

## CN(C)CCCN1c2ccccc2CCc2ccc(Cl)cc21 [Clomipramine, reference compound]
[1]
  inhibition of SIP (schedule-induced polydipsia), active dose: Active at 5

## CC(C)CN(c1ccncc1)c1csc2cc(Cl)ccc12.Cl [6-Chloro3-[(2-methylpropyl)(4-pyridinyl)amino]benzo[b]thiophen hydrochloride]
[1]
  inhibition of SIP (schedule-induced polydipsia), active dose: Active at 15

## CCCN(c1ccncc1)c1csc2cc(Cl)ccc12.Cl [6-Chloro-3-(propyl-4-pyridinylamino)benzo[b]thiophene hydrochloride]
[2]; [8]
  IC50: 2.6 µM
[3]
  IC50: 0.06 µM
[4]
  IC50: 560 nM
[5]
  IC50: 210 nM
[1]
  inhibition of SIP (schedule-induced polydipsia), active dose: Active at 30 and 15

## c1ccc2c(Nc3ccncc3)c[nH]c2c1 [3-(4-pyridinylamino)-1H-indole]
[2]; [8]
  IC50: 5.5 µM
[3]
  IC50: 14.5 µM
[6]
  IC50: 6.4 µM
[5]
  IC50: 1000 nM

## NC[C@H](O)c1ccc(O)c(O)c1 [norepinephrine]
[7]
  Km: 0.1 to 1 µM

## CN1[C@@H]2CC[C@H]1C[C@@H](OC(=O)c1cc(Cl)cc(Cl)c1)C2 [MDL 72222, reference compound]
[2]
  IC50: 0.53 µM
